# Test results: US12194051B2, “5-azaindazole derivatives as adenosine receptor antagonists” (MERCK PATENT GMBH, priority 2018, dated 2025)
# Legend:
# [1] = biological target: T1, human A2B receptors (Homo sapiens, UniProt P29275); assay: Inhibition of human A2B receptor in recombinant HEK293 cells, cAMP quantification (HTRF); type: cell-based; settings: read-out: A2B (Category)
# T1 construct: expressed in transfected cells; host or cells: HEK293
# T1 sequence (P29275 1-332): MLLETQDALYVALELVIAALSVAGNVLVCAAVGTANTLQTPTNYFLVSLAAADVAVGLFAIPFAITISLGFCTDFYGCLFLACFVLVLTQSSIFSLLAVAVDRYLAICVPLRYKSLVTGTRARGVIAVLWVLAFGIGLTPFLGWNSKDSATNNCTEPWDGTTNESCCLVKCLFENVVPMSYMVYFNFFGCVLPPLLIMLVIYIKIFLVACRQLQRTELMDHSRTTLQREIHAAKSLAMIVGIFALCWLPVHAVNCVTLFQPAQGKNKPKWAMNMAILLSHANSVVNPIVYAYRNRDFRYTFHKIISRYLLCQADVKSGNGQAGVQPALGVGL
# Protocol: (§1) The functional activities of human A2A and A2B receptors were determined by quantification of cAMP, being the second messenger for adenosine receptors.
# (§2) After a 15 min incubation, HTRF reagents (cAMP dynamic 2, Cis Bio) were added and the cellular cAMP levels were determined using the ENVISION (Perkin Elmer) plate reader.
# [2] = biological target: T2, human A2A receptors (Homo sapiens, UniProt P29274); assay: Inhibition of human A2A receptor in recombinant HEK293 cells, cAMP quantification (HTRF); type: cell-based; settings: read-out: A2A (Category)
# T2 construct: expressed in transfected cells; host or cells: HEK293
# T2 sequence (P29274 whole entry): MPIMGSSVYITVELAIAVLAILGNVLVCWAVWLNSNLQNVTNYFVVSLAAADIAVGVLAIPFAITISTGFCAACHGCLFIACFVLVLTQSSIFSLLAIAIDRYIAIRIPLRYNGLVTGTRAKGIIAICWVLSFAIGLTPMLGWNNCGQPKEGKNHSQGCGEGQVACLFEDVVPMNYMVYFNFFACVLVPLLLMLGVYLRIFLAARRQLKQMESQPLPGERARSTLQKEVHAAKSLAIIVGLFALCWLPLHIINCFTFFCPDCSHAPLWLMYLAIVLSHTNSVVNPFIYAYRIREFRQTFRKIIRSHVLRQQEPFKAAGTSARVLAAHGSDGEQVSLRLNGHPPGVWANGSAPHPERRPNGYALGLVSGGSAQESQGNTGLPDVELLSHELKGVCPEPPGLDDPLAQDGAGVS
# Protocol: as §1, §2
IC50 [1],IC50 [2],Compound
< 100 nM,< 100 nM,"O=C(c1cc2c(cn1)c(Nc1cc(F)ccn1)nn2CC(F)(F)F)N1CCCOCC1 [Compound 46, [3-[(4-fluoro-2-pyridyl)amino]-1-(2,2,2-trifluoroethyl)pyrazolo[4,3-c]pyridin-6-yl]-(1,4-oxazepan-4-yl)methanone]"
< 1000 nM,< 100 nM,"O=C(c1cc2c(cn1)c(Nc1ccncn1)nn2CC(F)(F)F)N1CCCOCC1 [Compound 73, [1,4]Oxazepan-4-yl-[3-(pyrimidin-4-ylamino)-1-(2,2,2-trifluoro-ethyl)-1H-pyrazolo[4,3-c]pyridin-6-yl]-methanone]"
< 1000 nM,< 100 nM,"[2H]C1([2H])COCCN(C(=O)c2cc3c(cn2)c(Nc2ccc(F)cc2)nn3CC(F)(F)F)C1 [Compound 41, (6,6-dideuterio-1,4-oxazepan-4-yl)-[3-(4-fluoroanilino)-1-(2,2,2-trifluoroethyl)pyrazolo[4,3-c]pyridin-6-yl]methanone]"
< 100 nM,< 100 nM,"[2H]C1([2H])COCCN(C(=O)c2cc3c(cn2)c(Nc2cc(F)ccn2)nn3CC(F)(F)F)C1 [Compound 60, (6,6-dideuterio-1,4-oxazepan-4-yl)-[3-[(4-fluoro-2-pyridyl)amino]-1-(2,2,2-trifluoroethyl)pyrazolo[4,3-c]pyridin-6-yl]methanone]"
< 100 nM,< 100 nM,"[2H]C1([2H])COCCN(C(=O)c2cc3c(cn2)c(Nc2ccccn2)nn3CC(F)(F)F)C1 [Compound 59, (6,6-dideuterio-1,4-oxazepan-4-yl)-[3-(2-pyridylamino)-1-(2,2,2-trifluoroethyl)pyrazolo[4,3-c]pyridin-6-yl]methanone]"
< 1000 nM,< 100 nM,[2H]C1([2H])COCCN(C(=O)c2cc3c(cn2)c(Nc2cnccn2)nn3CC(F)(F)F)C1 [Compound 121]
< 100 nM,< 100 nM,"O=C(c1cc2c(cn1)c(Nc1ccccn1)nn2CC(F)(F)F)N1CCCOCC1 [Compound 42, 1,4-oxazepan-4-yl-[3-(2-pyridylamino)-1-(2,2,2-trifluoroethyl)pyrazolo[4,3-c]pyridin-6-yl]methanone]"
< 1000 nM,< 100 nM,"O=C(c1cc2c(cn1)c(Nc1ccc(F)cn1)nn2CC(F)(F)F)N1CCC(F)CC1 [Compound 96, (4-Fluoro-piperidin-1-yl)-[3-(5-fluoro-pyridin-2-ylamino)-1-(2,2,2-trifluoro-ethyl)-1H-pyrazolo[4,3-c]pyridin-6-yl]-methanone]"
< 100 nM,< 100 nM,"[2H]C1([2H])COCCN(C(=O)c2cc3c(cn2)c(Nc2ccc(F)cn2)nn3CC(F)(F)F)C1 [Compound 91, (6,6-dideuterio-1,4-oxazepan-4-yl)-[3-[(5-fluoro-2-pyridyl)amino]-1-(2,2,2-trifluoroethyl)pyrazolo[4,3-c]pyridin-6-yl]methanone]"
< 1000 nM,< 100 nM,"COc1cc(Nc2nn(CC(F)(F)F)c3cc(C(=O)N4CCCOCC4)ncc23)ncc1F [Compound 81, [3-[(5-fluoro-4-methoxy-2-pyridyl)amino]-1-(2,2,2-trifluoroethyl)pyrazolo[4,3-c]pyridin-6-yl]-(1,4-oxazepan-4-yl)methanone]"
< 100 nM,< 100 nM,"O=C(c1cc2c(cn1)c(Nc1cccc(F)n1)nn2CC(F)(F)F)N1CCCOCC1 [Compound 49, [3-[(6-fluoro-2-pyridyl)amino]-1-(2,2,2-trifluoroethyl)pyrazolo[4,3-c]pyridin-6-yl]-(1,4-oxazepan-4-yl)methanone]"
< 100 nM,< 100 nM,"O=C(c1cc2c(cn1)c(Nc1ccc(F)cn1)nn2CC(F)(F)F)N1CCOC[C@@H](F)C1 [Compound 93, [(6S)-6-fluoro-1,4-oxazepan-4-yl]-[3-[(5-fluoro-2-pyridyl)amino]-1-(2,2,2-trifluoroethyl)pyrazolo[4,3-c]pyridin-6-yl]methanone]"
< 100 nM,< 100 nM,"O=C(c1cc2c(cn1)c(Nc1ccc(F)cn1)nn2CC(F)(F)F)N1CCC[C@@H](CO)C1 [Compound 101, [3-[(5-fluoro-2-pyridyl)amino]-1-(2,2,2-trifluoroethyl)pyrazolo[4,3-c]pyridin-6-yl]-[(3R)-3-(hydroxymethyl)-1-piperidyl]methanone]"

# The next lines start with the compound.
Compound,IC50 [1],IC50 [2]
"N#Cc1cccc(Nc2nn(CC(F)(F)F)c3cc(C(=O)N4CCCOCC4)ncc23)c1 [Compound 8, 3-[[6-(1,4-oxazepane-4-carbonyl)-1-(2,2,2-trifluoroethyl)pyrazolo[4,3-c]pyridin-3-yl]amino]benzonitrile]",< 1000 nM,< 100 nM
"CS(=O)(=O)Cn1nc(Nc2cc(Cl)ccn2)c2cnc(C(=O)N3CCCOCC3)cc21 [Compound 79, [3-(4-Chloro-pyridin-2-ylamino)-1-methanesulfonylmethyl-1H-pyrazolo[4,3-c]pyridin-6-yl]-[1,4]oxazepan-4-yl-methanone]",< 100 nM,< 100 nM
"CS(=O)(=O)Cn1nc(Nc2ccccc2)c2cnc(C(=O)N3[C@@H]4CC[C@H]3C[C@@H](O)C4)cc21 [Compound 29, [3-anilino-1-(methylsulfonylmethyl)pyrazolo[4,3-c]pyridin-6-yl]-(3-endo-hydroxy-8-azabicyclo[3.2.1]octan-8-yl)methanone]",< 100 nM,< 100 nM
"O=C(c1cc2c(cn1)c(Nc1cncs1)nn2CC(F)(F)F)N1CCCOCC1 [Compound 84, [1,4]Oxazepan-4-yl-[3-(thiazol-5-ylamino)-1-(2,2,2-trifluoro-ethyl)-1H-pyrazolo[4,3-c]pyridin-6-yl]methanone]",< 100 nM,< 100 nM
"O=C(c1cc2c(cn1)c(Nc1ccncn1)nn2CC(F)(F)F)N1CCC(O)CC1 [Compound 76, (4-Hydroxy-piperidin-1-yl)-[3-(pyrimidin-4-ylamino)-1-(2,2,2-trifluoro-ethyl)-1H-pyrazolo[4,3-c]pyridin-6-yl]-methanone]",< 1000 nM,< 100 nM
"CS(=O)(=O)Cn1nc(Nc2ccc(F)cc2)c2cnc(C(=O)N3[C@@H]4CC[C@H]3C[C@@H](O)C4)cc21 [Compound 30, [3-(4-fluoroanilino)-1-(methylsulfonylmethyl)pyrazolo[4,3-c]pyridin-6-yl]-(3-endo-hydroxy-8-azabicyclo[3.2.1]octan-8-yl)methanone]",< 1000 nM,< 100 nM
"O=C(c1cc2c(cn1)c(Nc1cnccn1)nn2CC(F)(F)F)N1CCCOCC1 [Compound 61, 1,4-oxazepan-4-yl-[3-(pyrazin-2-ylamino)-1-(2,2,2-trifluoroethyl)pyrazolo[4,3-c]pyridin-6-yl]methanone]",< 100 nM,< 100 nM
"O=C(c1cc2c(cn1)c(Nc1ccc(F)cc1)nn2CC(F)(F)F)N1CC2CCC(C1)O2 [Compound 21, [3-(4-fluoroanilino)-1-(2,2,2-trifluoroethyl)pyrazolo[4,3-c]pyridin-6-yl]-(8-oxa-3-azabicyclo[3.2.1]octan-3-yl)methanone]",< 100 nM,< 100 nM
"COc1cccc(Nc2nn(CC(F)(F)F)c3cc(C(=O)N4CCCOCC4)ncc23)c1 [Compound 7, [3-(3-methoxyanilino)-1-(2,2,2-trifluoroethyl)pyrazolo[4,3-c]pyridin-6-yl]-(1,4-oxazepan-4-yl)methanone]",< 100 nM,< 100 nM
"CS(=O)(=O)Cn1nc(Nc2ccc(F)cc2)c2cnc(C(=O)N3CCCOCC3)cc21 [Compound 27, [3-(4-fluoroanilino)-1-(methylsulfonylmethyl)pyrazolo[4,3-c]pyridin-6-yl]-(1,4-oxazepan-4-yl)methanone]",< 1000 nM,< 100 nM
"COc1ccnc(Nc2nn(CC(F)(F)F)c3cc(C(=O)N4CCCOCC4)ncc23)c1 [Compound 63, [3-[(4-methoxy-2-pyridyl)amino]-1-(2,2,2-trifluoroethyl)pyrazolo[4,3-c]pyridin-6-yl]-(1,4-oxazepan-4-yl)methanone]",< 100 nM,< 100 nM
"O=C(c1cc2c(cn1)c(Nc1cccc(F)c1)nn2CC(F)(F)F)N1[C@@H]2CC[C@H]1C[C@@H](O)C2 [Compound 25, [3-(3-fluoroanilino)-1-(2,2,2-trifluoroethyl)pyrazolo[4,3-c]pyridin-6-yl]-(3-endo-hydroxy-8-azabicyclo[3.2.1]octan-8-yl)methanone]",< 100 nM,< 100 nM
"O=C(c1cc2c(cn1)c(Nc1cc(F)cc(F)c1)nn2CC(F)(F)F)N1CCCOCC1 [Compound 15, [3-(3,5-difluoroanilino)-1-(2,2,2-trifluoroethyl)pyrazolo[4,3-c]pyridin-6-yl]-(1,4-oxazepan-4-yl)methanone]",< 1000 nM,< 100 nM
"O=C(c1cc2c(cn1)c(Nc1cnc(Cl)cn1)nn2CC(F)(F)F)N1CCC(O)CC1 [Compound 75, [3-(5-Chloro-pyrazin-2-ylamino)-1-(2,2,2-trifluoro-ethyl)-1H-pyrazolo[4,3-c]pyridin-6-yl]-(4-hydroxy-piperidin-1-yl)-methanone]",< 100 nM,< 100 nM
"CC1(O)CCN(C(=O)c2cc3c(cn2)c(Nc2cnccn2)nn3CC(F)(F)F)CC1 [Compound 123, [3-(pyrazin-2ylamino)-1-(2,2,2-trifluoro-ethyl)-1H-pyrazolo[4,3-c]pyridin-6-yl]-(4-hydroxy-4-methyl-piperidin-1-yl)-methanone]",< 1000 nM,< 1000 nM
